Experimental findings from patent US5017618A, “Labile derivatives of ketone analogs of 3-substituted-1-alkylamino-2-propanols and their use as beta-adrenergic blockers” (priority 1989, dated 1991) are described below.

Data set [1] is described as follows: Spontaneous isomerization of HCl salts of oximes (I'). The data set is classed as physicochemical. The settings on record: HCl salts in solution. From the text:
Spontaneous isomerization of HCl salts of compounds of formula (I') was also observed in solution; it was not observed in oxalates or bases of (I'). […] Acid-catalyzed isomerization was in most cases found to result in formation of the opposite isomers in solutions and in suspensions, respectively. In suspension, clearly the less soluble isomer is forming.

Another data set has as its system rabbit eyes. The data set is described as follows: Local action of the drugs on the eyes (irritation, congestion, redness, lacrimation). It counts as in vivo, rabbit (male New Zealand albino).
Data set [2] deals with rabbit cornea (intraocular enzymes). It counts as in vivo. The settings on record: rabbit, in vivo. The protocol:
The tissue was homogenized in an alkaline buffer (pH 10.0) to give 10% (w/v) homogenate, and extracted twice with equal volumes of methylene chloride/diethyl ether mixture (1:4, v/v) by shaking for 15 minutes. The organic layer was separated, then re-extractedwith an equal volume of aqueous 0.1M hydrochloric acid solution. The aqueous phase was made alkaline (pH 10.0) and extracted with methylene chloride/diethyl ether, the organic layer was transferred to a deactivated glass vial, and the solvent was evaporated at reduced pressure under nitrogen stream. The residue was dissolved in 0.01M hydrochloric acid solution and analyzed by high-performance liquid chromatography (HPLC). A Supelcosil LC-8-DB analytical column (7.5 cm×4.6 mm i.d., 3 μm particle size) and mobile phase (1.5 mL/min flow rate) consisting of 30% acetonitrile in an aqueous buffer solution of 0.02M monobasic potassium phosphate (adjusted to pH 3.0 with phosphoric acid) and 0.01 (v/v) triethylamine. UV detection at 280 nm was applied. […] The same experiment was carried out by administering 1-(isopropylamino)-3-(2-allylphenoxy)-2-propanone oxime hydrochloride salt in 2% (w/v) aqueous solution. […]

Data set [3] deals with resting heart rate of rats. As to the kind of experiment: Effect on resting heart rate in rats. The data set is classed as in vivo, rat (male Sprague-Dawley). Conditions: 6 mg/kg i.v. (Example 6). The procedure:
(§1) Groups of seven male Sprague-Dawley rats weighing 150-250 g were used. Each animal was anesthetized with sodium pentobarbital (50 mg/kg) and the jugular vein was cannulated with PE50 tubing. This cannula was subcutaneously threaded around the neck and exteriorized dorsally. The cannula was filled with heparin solution ([…]) and sealed with a solid 22-gauge stylet. Animals were housed in individual stainless steel cages and at least 24 hours were allowed for recovery from the surgery. Food and water were provided ad libitum. On the day of the experiment, the heart rate of each rat was monitored with a plethsmograph and the data recorded on a Physioscribe II recorder. One hour was allowed as an equilibration period before any drugs were administered. Drugs were dissolved in normal saline as 0.3% solution and were administered intravenously at a dose of 6 mg/kg. The resting heart rate was then recorded after 1, 3, 5, 10 and 15 minutes following i.v. injection. […] A control group of seven animals was intravenously administered saline solution and was treated exactly in the same manner as the drug-treated groups. The significance of the difference between the effect of saline solution and the drugs under investigation on the resting heart rate and on isoprenaline tachycardia was analyzed using the student's "t" test. Values are given as mean ±S.E. of the mean. […] (.) carteolol HCl, 1c; .circle. propranolone ketoxime HCl, 6a; (.gradient.) timolone ketoxime oxalate, 6b; (Δ) N-isopropyl timolone ketoxime HCl, 6d; carteolone oxime HCl, 6c; and (---) saline solution. […] Drugs were administered to groups of 5 rats using a stomach tube and the heart rate was recorded for 1 hour. […] A control group of 5 rats was treated exactly in the same manner after the oral administration of the appropriate volume of saline solution.

Data set [4] deals with IOP of rabbits, treated eye. As to the kind of experiment: Unilateral administration, IOP of rabbits. It counts as in vivo, rabbit. The settings on record: 0.5% and 1.0% solution in saline, one eye. The procedure: (§2) The animals were kept in individual cages with free access to food and water. Intraocular pressure was measured using a Digilab model 30R pneumatonometer. The pneumatonometer readings were checked at least twice a day using the Digilab calibration verifier. All measurements were obtained from unrestrained, unanesthetized rabbits. One drop of 0.5% propacaine (Ophthetic-Allergen Pharmaceuticals, Inc.) diluted 1:2 with saline was instilled in each eye immediately prior to IOP measurement. Drugs were administered as 1 or 2.5% solution in buffer pH 7.4 or in saline in both eyes of a group of at least four rabbits. Another group of at least three rabbits served as control and was administered the carrier only. IOP was recorded after 30 and 60 minutes and then after 2, 3, 4, 6 and 8 hours following the drug or carrier administration. Values are given as means ± standard error (S.E.) of the mean. The significance of the change was determined using the student's t-test.
The unilateral administration of propranolol oxime hydrochloride 6a was subsequently studied at two different concentrations, 0.5% and 1.0%. Drugs were administered as 0.5% or 1.0% solution in saline in one of the eyes of each animal in a group of five rabbits. The untreated eye of each rabbit served as a control and received vehicle only. IOP was recorded as described above. […]

Data set [5] deals with isoprenaline-induced tachycardia. The data set is described as follows: Effect on isoprenaline-induced tachycardia in rats (β-adrenergic antagonist activity). The settings on record: rats; 6 mg/kg i.v.; isoprenaline 50 μg/kg s.c.; FIG. 1. It counts as in vivo, rat (male Sprague-Dawley). The procedure: as §1
For data set [6], the system named is Intraocular Pressure (IOP) of Rabbits. As to the kind of experiment: Effect on the Intraocular Pressure (IOP) of Rabbits. The data set is classed as in vivo, rabbit (male New Zealand albino). The settings on record: for ocular hypotensive activity compared with parent β-blocker: same dose levels; for ocular hypotensive activity compared with parent β-blocker / ocular hypotensive activity (in words): rabbits; for ocular hypotensive activity (in words): topical, dose levels used. The protocol: as §2, with “IOP was recorded after 30 and 60 minutes and then after 2, 3, 4, 6 and 8 hours following the drug or carrier administration.” left out

Another data set can be described thus: Hygroscopicity. It counts as physicochemical. The settings on record: crystals. The protocol:
In a 50 mL round-bottomed flask was placed a solution of oxalic acid (0.20 g, 2.22 mmole) in ether (10 mL). To this solution was added a solution of 5b (0.43 g, 1.3 mmole) in ether. The mixture was stirred at room temperature for 1 hour. The white non-hygroscopic crystals were filtered and dried in vacuo. Yield 0.53 g (97%), m.p. 165°-166° (dec.). NMR (CDCl3) δ 5.3 (s, 2H), 3.9-3.7 (m, 4H), 3.6-3.4 (m, 6H), 1.1 (s, 9H). Anal. (C18 H25 O7 N5), C,H,N.

Where [7] appears, read: Table 3, 1% solution, time zero.

For the compound `Cc1ccc(Cl)c(OCC(CNC(C)(C)C)=NO)c1` [Il], the spontaneous isomerization entry in data set [1] is on record as “no isomerization of Il was observed”.
Regarding `CC(C)NCC(COc1cccc2ccccc12)=NO.Cl` [Propranolone oxime HCl 6a, 1-(Isopropylamino)-3-(1-naphthyloxy)-2-propanone oxime hydrochloride], the “irritant action, unilateral administration” value with rabbit eyes (0.5% and 1.0% solution in saline, one eye) is reported as “No irritant action was noted”. Further, in the data set with rabbit eyes (1% and 2.5%, both eyes, rabbits), the ocular irritation result was “completely devoid of the ocular irritation”. For the same compound, the “metabolites identified in cornea” value in data set [2] was “Peaks were identified as the E- and Z-isomers of the ketoxime administered, as the corresponding ketone 1-(isopropylamino)-3-(naphthyloxy)-2-propanone, and as the β-adrenergic antagonist 1-(isopropylamino)-3-(naphthyloxy)-2-propanol(propranol)”. Besides, the “activity on resting heart rate (negative chronotropic action)” value in data set [3] is “highest activity”. Further, the “decrease in IOP, unilateral administration” value in data set [4] is recorded as “Significant decrease in the IOP was observed at both levels, only in the treated eye”. Also, the “β-adrenergic antagonist activity against isoprenaline-tachycardia” value in data set [5] is “most effective”. Also, the “% change after treatment (IOP)” value in data set [6] (1% solution, 30 min.) is -3.23%; in data set [6] (1% solution, 60 min.), -11.51%; in data set [6] (1% solution, 2 hrs.), -15.82%; in data set [6] (1% solution, 3 hrs.), -16.18%; in data set [6] (1% solution, 4 hrs.), -20.14%; in data set [6] (1% solution, 6 hrs.), -7.08%. For the same compound, the “% change after treatment (IOP)” value is “+0.50%” in data set [6] (1% solution, 8 hrs.); 0.00% in data set [6] (1% solution, time zero); “+1.92%” in data set [6] (2.5% solution, 30 min.); -10.00% in data set [6] (2.5% solution, 60 min.); -13.08% in data set [6] (2.5% solution, 2 hrs.); -18.46% in data set [6] (2.5% solution, 3 hrs.). The “% change after treatment (IOP)” value in data set [6] (2.5% solution, 6 hrs.) was -9.23%; in data set [6] (2.5% solution, 8 hrs.), -0.77%; in data set [6] (2.5% solution, time zero), 0.00%. Moreover, the “IOP, treated” value in data set [6] (1% solution, 30 min.) is 26.9 ± 0.58 mm/Hg; in data set [6] (1% solution, 60 min.), 24.0 ± 0.60 mm/Hg; in data set [6] (1% solution, 2 hrs.), 23.4 ± 0.51 mm/Hg; in data set [6] (1% solution, 3 hrs.), 23.3 ± 0.35 mm/Hg; in data set [6] (1% solution, 4 hrs.), 22.2 ± 0.42 mm/Hg; in data set [6] (1% solution, 6 hrs.), 25.8 ± 0.56 mm/Hg. Besides, the “IOP, treated” value in data set [6] (1% solution, 8 hrs.) turned out to be 27.9 ± 0.62 mm/Hg; in data set [6] (1% solution, time zero), 27.8 ± 0.62 mm/Hg; in data set [6] (2.5% solution, 30 min.), 26.5 ± 0.63 mm/Hg; in data set [6] (2.5% solution, 60 min.), 23.4 ± 0.55 mm/Hg; in data set [6] (2.5% solution, 2 hrs.), 22.6 ± 0.43 mm/Hg; in data set [6] (2.5% solution, 3 hrs.), 21.2 ± 0.28 mm/Hg. The “IOP, treated” value in data set [6] (2.5% solution, 4 hrs.) was 20.4 ± 0.34 mm/Hg; in data set [6] (2.5% solution, 6 hrs.), 23.6 ± 0.48 mm/Hg; in data set [6] (2.5% solution, 8 hrs.), 25.8 ± 0.65 mm/Hg; in data set [6] (2.5% solution, time zero), 26.0 ± 0.48 mm/Hg. Also, the “ocular hypotensive activity compared with parent β-blocker” value in data set [6] is “much more pronounced and prolonged than that of propranolol itself”. The “ocular hypotensive activity (in words)” value in data set [6] was “has shown the highest activity at both tested concentration levels, 1 and 2.5%”.
On to `CC(C)(C)NCC(COc1nsnc1N1CCOCC1)=NO.O=C(O)C(=O)O` [Timolone oxime oxalate 6b, 1-(tert-Butylamino)-3-[(4-morpholino-1,2,5-thiadiazol-3-yl)oxy]-2-propanoneoxime oxalate], for which, in the data set “Hygroscopicity”, the hygroscopicity entry is “non-hygroscopic”. Also, in data set [3], the “activity on resting heart rate (negative chronotropic action)” value is recorded as “highest activity”. The “β-adrenergic antagonist activity against isoprenaline-tachycardia” value in data set [5] was “most effective”. The “% change after treatment (IOP)” value in data set [6] (Table 3, 1% solution, 30 min.) was -2.43%; in data set [6] (Table 3, 1% solution, 1 hr.) it was -14.56%; in data set [6] (Table 3, 1% solution, 2 hr.), -15.61%; in data set [6] (Table 3, 1% solution, 3 hr.), -11.64%; in data set [6] (Table 3, 1% solution, 5 hr.), -5.49%; in data set [6] (Table 3, 1% solution, 6 hr.) it was “+1.20%”. Besides, the “% change after treatment (IOP)” value was -7.42% in data set [6] (Table 3, 1% solution, 8 hr.) and 0.00% in data set [6] (setting [7]). Also, the “IOP, drug-treated” value in data set [6] (Table 3, 1% solution, 30 min.) is listed as 27.75 ± 0.68 mm/Hg; in data set [6] (Table 3, 1% solution, 1 hr.), 24.30 ± 0.63 mm/Hg; in data set [6] (Table 3, 1% solution, 2 hr.), 24.00 ± 0.44 mm/Hg; in data set [6] (Table 3, 1% solution, 3 hr.) it was 25.13 ± 0.96 mm/Hg; in data set [6] (Table 3, 1% solution, 4 hr.), 26.93 ± 0.48 mm/Hg; in data set [6] (Table 3, 1% solution, 5 hr.) it was 26.88 ± 0.52 mm/Hg. Moreover, the “IOP, drug-treated” value came to 28.78 ± 0.91 mm/Hg in data set [6] (Table 3, 1% solution, 6 hr.); 26.33 ± 0.40 mm/Hg in data set [6] (Table 3, 1% solution, 8 hr.); 28.44 ± 0.63 mm/Hg in data set [6] (setting [7]). Besides, the “ocular hypotensive activity compared with parent β-blocker” value in data set [6] was “faster in its onset and shorter in its duration than timolol 1b itself”. The “ocular hypotensive activity (in words)” value in data set [6] is listed as “significant ocular hypotensive activity”.
